Test results reported in article PMC9238271, “The quorum sensing peptide EntF* promotes colorectal cancer metastasis in mice: a new factor in the host-microbiome interaction” (BMC Biology, 2022).
Values joined by “and” are separate entries in the source; they are usually repeats but may differ in a detail not shown here. Identical values can stand only once.

How the values were obtained:
[1] = system: E-cadherin expression in HCT-8 cells; assay: Western blot of E-cadherin expression, HCT-8 cells (EntF*, alanine and D-amino acid analogs); type: cell-based
Procedure: (§1) HCT-8, HT-29, and HT-116 cells were grown in DMEM medium supplied with 10% fetal bovine serum (FBS) and 1% penicillin-streptomycin. Caco-2 cells were grown in DMEM medium supplied with 10% FBS, 1% non-essential amino acid NEAA), and 1% penicillin-streptomycin. Cells were cultured at 37 °C and 5% CO2. As cells reached confluency, they were detached using 0.25% Trypsin-EDTA.
(§2) For Western blot analyses, HCT-8 (n = 15), HCT-116 (n = 12), Caco-2 (n = 6), and HT-29 (n = 12) cells were seeded in 6-well plates at a density of 1 × 10^6 cells/well. Twenty-four hours after seeding, all cell lines were treated with 1 μM EntF* or a placebo solution. HCT-8 cells were also tested for responsiveness to 1 μM EntF* synthetic alanine-derived analogs. For antagonist activity analysis, HCT-8 cells were treated with 1 μM Nef-M1 or 1 μM EntF*A1 alone or in combination with 500 nM EntF*. After 24 h, cells were detached from the surface and lysed in RIPA buffer (Thermo Scientific). Protein concentration was determined using the modified Lowry protein assay kit (Thermo Scientific), according to the manufacturer’s instructions. Protein samples were diluted to the same concentration (4 μg/μL) with water and diluted again 1:1 using 2x Laemmli buffer. After that, samples were boiled for 5 min at 95 °C to denature proteins and centrifuged for 5 min at 16,000g; supernatants were used for Western blot analyses. Equal amounts of total protein (20 μg/lane) were separated by SDS-PAGE on an Any kD^TM gel (Bio-Rad ) and then transferred to a PVDF membrane. Before incubation with antibodies, non-specific binding sites on the membranes were blocked using 5% skimmed milk solution (1 h). TBS buffer with 0.05% Tween 20 was used for all washing steps. Membranes were incubated overnight at 4 °C with an anti-E-cadherin primary antibody (1/1000 dilution). An HRP-conjugated anti-rabbit antibody (1/2000 dilution, 1 h incubation) was used for chemiluminescent detection. Membranes were incubated with the detection substrate for 5 min and signal detection was performed using the ChemiDoc EZ imager and Image Lab software (Bio-Rad). Signal intensity was normalized against the total protein content in each lanes.
A quantitative approach was used to evaluate the importance of each amino acid, where the Fisher’s LSD p-values of (1) multiple comparisons between EntF* and the alanine (ALA) scan and (2) multiple comparisons between different peptides of the ALA scan are combined. Subsequently, based on the combined P-score, the amino acids were classified in 5 classes using a hierarchical cluster analysis and confirmed using the Jenks natural breaks algorithm with K = 5. CombinedPscore=1-PPBSvsALAscan*PEntF*vsALAscan

[2] = system: E-cadherin expression in HT-29 cells; assay: Western blot of E-cadherin expression, HT-29 cells; type: cell-based; conditions: HT-29 cells, average of n = 12
Procedure: as §1
as §2, with “Signal intensity was normalized against the total protein content in each lanes.” left out

[3] = system: E-cadherin expression in Caco-2 cells; assay: Western blot of E-cadherin expression, Caco-2 cells; type: cell-based; conditions: CaCo-2 cells, average of n = 6
Procedure: as §1
as §2, with “Signal intensity was normalized against the total protein content in each lanes.” left out

[4] = system: E-cadherin expression in HCT-116 cells; assay: Western blot of E-cadherin expression, CXCR4-negative HCT-116 cells; type: cell-based
Procedure: as §1, §2

[5] = system: luciferase-transfected HCT-8/E11 cells injected into the cecal wall; assay: Orthotopic mouse model of colorectal cancer: weekly bioluminescent imaging; type: in vivo, female athymic nude mice (Swiss nu/nu)
Procedure: All in vivo experiments were performed according to the Ethical Committee principles of laboratory animal welfare, approved by our institute (Ghent University, Faculty of Medicine and Health Sciences, approval number ECD 17-90). Mice were maintained in a sterile environment under controlled conditions (light–dark cycle with light from 7:00 h to 17:00 h, temperature 21–25 °C and humidity 45–65%). Before the experiment, mice were allowed to acclimate to the abovementioned conditions for a minimum of 7 days.
(§3) Six-week-old female athymic nude mice (Swiss nu/nu) were anesthetized, and a minimally invasive midline laparotomy was performed to localize the cecum. The cecum was then gently pulled out, and luciferase-transfected HCT-8/E11 cells (1 × 10^6 cells) in 20 μL serum-free DMEM medium with Matrigel (1:1) were injected into the cecal wall. Before implantation, cells were treated with EntF* (10^2 nM), Phr0662 (10^2 nM), vehicle (PBS), or TGFα positive control (0.1 μg mL^−1) solutions for 5 days. The cecum was then carefully placed back into the abdominal cavity and the surgical incision was closed with two layers of sutures with PDS 6-0. […] Once a week, mice were examined for tumor growth and metastases using bioluminescent imaging with the IVIS Lumina II (Perkin Elmer, Belgium) after i.p. injection with 200 μL luciferin (150 mg kg^−1). After 6 weeks, mice were euthanized using cervical dislocation, and the liver, diaphragm, lungs, cecum, duodenum, and peritoneum were macroscopically examined for the presence of tumor nodules. Liver and lung tissues were then fixed in formalin for 24 h and stored in 70% ethanol for maximum 3 days before embedding in paraffin. Next, a hematoxylin and eosin (H&E) staining was performed on 8 μm sections, and 3 sections per mouse were visualized using microscopy. Slides from tumor-bearing mice were analyzed by two blinded, independent investigators using the scoring system described in Additional file 5: Table S3. In case of differences, slides were scored by a third blinded, independent investigator for consensus.
(§4) The Kolmogorov-Smirnov test was used to assess if data obtained were normally distributed. For sample size n < 10, non-parametric tests (Mann-Whitney U test) were performed directly. Slope comparison was based on linear regression analysis. Bootstrapped medians and Hedges G-values were used to calculate the effect size when sample sizes were different between the groups.

[6] = system: luciferase-transfected HCT-8/E11 cells injected into the cecal wall; assay: Orthotopic mouse model: macroscopic number of tumor nodules on the cecum; type: in vivo, female athymic nude mice (Swiss nu/nu)
Procedure: as §3
as §4, with “groups. Cohen’s d values were calculated as a measure of the effect size when similar standard deviations for both groups were found, and sample sizes were the same.” for “groups.”

[7] = system: tumor nodules in the liver; assay: Orthotopic mouse model: histopathological evaluation of liver; type: in vivo, female athymic nude mice (Swiss nu/nu)
Procedure: as §3

[8] = system: tumor nodules in the lungs; assay: Orthotopic mouse model: histopathological evaluation of lungs; type: in vivo, female athymic nude mice (Swiss nu/nu)
Procedure: as §3

[9] = after a 6-week treatment, compared to the placebo group
[10] = individual samples, one line per sample

## C-X-C motif chemokine 12 (KPVSLSYRC; only N-terminal stretch given) [CXCL12, endogenous ligand of the CXCR4 receptor]
[1]; 24 h, n = 15
  effect on E-cadherin levels in HCT-8 cells: significant decrease
[1]; D-scan sheet, Blot 13, CXCL12 1µg/ml, relative to H2O lane = 100.0, single blot
  E-cadherin expression relative to H2O control (= 100): 89.3
[1]; D-scan sheet, Blot 14, CXCL12 1µg/ml, relative to H2O lane = 100.0, single blot
  E-cadherin expression relative to H2O control (= 100): 93.2
[1]; D-scan sheet, Blot 15, CXCL12 1µg/ml, relative to H2O lane = 100.0, single blot
  E-cadherin expression relative to H2O control (= 100): 77.6
[1]; D-scan sheet, Blot 16, CXCL12 1µg/ml, relative to H2O lane = 100.0, single blot
  E-cadherin expression relative to H2O control (= 100): 91.1
[1]; D-scan sheet, Blot 17, CXCL12 10µg/ml, relative to H2O lane = 100.0, single blot
  E-cadherin expression relative to H2O control (= 100): 46.4
[1]; D-scan sheet, Blot 18, CXCL12 10µg/ml, relative to H2O lane = 100.0, single blot
  E-cadherin expression relative to H2O control (= 100): 45.6
[1]; D-scan sheet, Blot 19, CXCL12 10µg/ml, relative to H2O lane = 100.0, single blot
  E-cadherin expression relative to H2O control (= 100): 84.8
[1]; D-scan sheet, Blot 20, CXCL12 10µg/ml, relative to H2O lane = 100.0, single blot
  E-cadherin expression relative to H2O control (= 100): 28.8
[1]; D-scan sheet, Blot 21, CXCL12 100µg/ml, relative to H2O lane = 100.0, single blot
  E-cadherin expression relative to H2O control (= 100): 80.5
[1]; D-scan sheet, Blot 22, CXCL12 100µg/ml, relative to H2O lane = 100.0, single blot
  E-cadherin expression relative to H2O control (= 100): 80.0
[1]; D-scan sheet, Blot 23 (single blot), chemiluminescence band, Norm. Vol. relative to H2O lane = 100.0, CXCL12 at 100µg/ml
  E-cadherin expression relative to H2O control (= 100): 75.6
[1]; D-scan sheet, Blot 24 (single blot), chemiluminescence band, Norm. Vol. relative to H2O lane = 100.0, CXCL12 at 100µg/ml
  E-cadherin expression relative to H2O control (= 100): 96.6
[1]; H2O = 100.0, CXCL12 at 10µg/ml, mean of the replicates (row r47, unlabelled; SEM in row below)
  E-cadherin expression relative to H2O control (= 100): 51.4
[1]; HCT-8 cells, average (EntF* n = 15, CXCL12 n = 4)
  Relative E-cadherin decrease in different cell lines, Average: 51.4
[2]
  Relative E-cadherin expression, average: 78.2
[3]
  Relative E-cadherin in different cell lines, Average: 45.3
[4]; CXCR4-negative cells, 24 h, n = 12
  effect on E-cadherin expression in HCT-116 cells: no decrease
[4]; HCT-116 cells, average of n = 12
  Relative E-cadherin level: 111.3

## Epidermal Growth Factor [EGF]
[5]; after a 6-week treatment
  effect size of bioluminescence, upper end of range: 826%
[5]; [9]
  effect size class by Hedges' G, bioluminescence: medium to large effect
[5]; after a 6-week treatment, bootstrapped median
  effect size: increase in bioluminescence compared to the placebo: 316%
[5]; daily i.p. over 6 weeks, linear regression slope comparison
  luciferase activity / tumor growth compared to the vehicle: significant increase in tumor growth
[6]; [9]
  effect size class by Hedges' G, number of nodules in the cecum: large
[6]; after a 6-week treatment, macroscopic inspection
  increase in the number of nodules on the cecum compared to PBS vehicle: 4.5 fold
[6]; macroscopic evaluation caecum, mean of the group
  Mean amount of nodules: 16.3
[7]; [10]
  Histology scoring LIVER, Scoring person 1 (ND): 4 and 3 and 2 and 0
  Histology scoring LIVER, Scoring person 2 (ADS): 4 and 2 and 1 and 3 and 0
  Histology scoring LIVER, conclusion per sample: 4 and 2 and 1 and 3 and 0
[7]; per group
  Histology scoring LIVER, conclusion per group: 3
[8]; [10]
  Histology scoring LUNGS, Scoring person 1 (ND): 3 and 4 and 0 and 1
  Histology scoring LUNGS, Scoring person 2 (ADS): 3 and 4 and 0 and 1
  Histology scoring LUNGS, conclusion per sample: 3 and 4 and 0 and 1
[8]; per group
  Histology scoring LUNGS, conclusion per group: 3

## TGFa
[1]; Ala-scan sheet, Blot 19 (single blot), chemiluminescence band, placebo lane = 100
  Relative E-cadherin decrease: 49.4514
[1]; Ala-scan sheet, Blot 20 (single blot), chemiluminescence band, placebo lane = 100
  E-cadherin expression relative to H2O control (= 100): 55.9239
[1]; Ala-scan sheet, Blot 21 (single blot), chemiluminescence band, placebo lane = 100
  Relative E-cadherin decrease: 121.047
[1]; Ala-scan sheet, Blot 24 (single blot), chemiluminescence band, Norm. Vol. relative to placebo lane = 100
  E-cadherin expression relative to H2O control (= 100): 52.2
[1]; Ala-scan sheet, Blot 25 (single blot), chemiluminescence band, Norm. Vol. relative to placebo lane = 100
  E-cadherin expression relative to H2O control (= 100): 30.5
[1]; Ala-scan sheet, Blot 26 (single blot), chemiluminescence band, Norm. Vol. relative to placebo lane = 100
  E-cadherin expression relative to H2O control (= 100): 88.2
[1]; Ala-scan sheet, Blot 27 (single blot), chemiluminescence band, Norm. Vol. relative to placebo lane = 100
  E-cadherin expression relative to H2O control (= 100): 330.9
[1]; Ala-scan, Blot 11 (single blot replicate), normalized band volume relative to Placebo = 100.0
  E-cadherin expression relative to H2O control (= 100): 85.7
[1]; Ala-scan, Blot 12 (single blot replicate), normalized band volume relative to Placebo = 100.0
  E-cadherin expression relative to H2O control (= 100): 80.6
[1]; Ala-scan, Blot 13 (single blot replicate), normalized band volume relative to Placebo = 100.0
  E-cadherin expression relative to H2O control (= 100): 55.6
[1]; Ala-scan, Blot 14 (single blot replicate), normalized band volume relative to Placebo = 100.0
  E-cadherin expression relative to H2O control (= 100): 119.9
[1]; Ala-scan, Blot 18 (single blot replicate), normalized band volume relative to Placebo = 100.0
  E-cadherin expression relative to H2O control (= 100): 188.1
[1]; H2O = 100.0, mean of the replicates (row r29, unlabelled; SEM in row below)
  Ala scan: Relative E-cadherin decrease: 73.9
[1]; H2O vs. test, 95% CI, Dunnett's and Fisher's LSD P values in neighbouring columns
  Ala-scan: Mean decrease (%): 26.1%
